Assay results taken from patent publication US8962859B2, “Spiro-amino-imidazo-fused heterocyclic compounds as beta-secretase modulators and methods of use” (Amgen Inc., priority 2011, dated 2015).

Columns and labels:
BACE 1 = BACE 1 (Homo sapiens (Human), UniProt P56817); assay: In vitro enzymatic BACE FRET assay; format: biochemical; conditions: average IC50; acetate buffer pH 4.2, enzyme 0.2 nM, FRET substrate 50 nM
Protocol: In Vitro Enzymatic BACE FRET (Fluorescence Resonance Energy Transfer) Assay (Enzyme Assay Data in the Example Table I)
The assay buffer used in this screen is 0.05 M acetate, pH 4.2, 10% DMSO final, 100 uM genapol (which is a nonionic detergent, below its Critical Micelle Concentration). The Beta Secretase enzyme (0.2 nM) is pre-incubated for one hour with inhibitors, typically in about 1 uL of DMSO according to a serial dilution, are added thereto. This assay is effectively started by the addition of FRET substrate (50 nM) and the combination is incubated for one hour. The FRET assay is terminated with by addition of Tris buffer, which raises the pH to neutrality, and the fluorescence is determined. The FRET substrate is a peptide with commercially available fluorophore and quencher, on opposite sides of the BACE cleavage site. Proteolytic cleavage of the FRET substrate releases quenching of fluorescence (excitation 488 nm and […]).

[1] = test system: Aβ 40 levels in cells stably expressing Amyloid Precursor Protein (APP); assay: In vitro BACE cell-based assay (HEK cell assay), Aβ40 sandwich ELISA; conditions: average IC50, inhibition of Aβ40 in conditioned medium after 24 h
Protocol: The cell-based assay measures inhibition or reduction of Aβ40 in conditioned medium of test compound treated cells expressing amyloid precursor protein.
Cells stably expressing Amyloid Precursor Protein (APP) were plated at a density of 40K cells/well in 96 well plates (Costar). The cells were cultivated for 24 hours at 37° C. and 5% CO2 in DMEM supplemented with 10% FBS. The test compounds were then added to cells in 10-point dose response concentrations with the starting concentration being either 100 μM or 10 μM. The compounds were diluted from stock solutions in DMSO and the final DMSO concentration of the test compounds on cells was 0.1%. After 24 h of incubation with the test compounds the supernatant conditioned media was collected and the Aβ 40 levels were determined using a sandwich ELISA. The IC50 of the compound was calculated from the percent of control or percent inhibition of Aβ 40 as a function of the concentration of the test compound.
The sandwich ELISA to detect Aβ 40 was performed in 96 well microtiter plates, which were pre-treated with goat anti-rabbit IgG (Pierce). The capture and detecting antibody pair that were used to detect Aβ 40 from cell supernatants were affinity purified pAb40 (Biosource) and biotinylated 6E10 (Signet Labs Inc.), respectively.
Cellular supernatants were incubated with the capture antibody for 3 h at 4° C., followed by 3 wash steps in TBS-tween (0.05%). The detecting antibody incubation was for 2 h at 4° C., again followed by the wash steps as described previously. The final readout of the ELISA is Time-Resolved Fluorescence (counts per minute) using Delfia reagents Streptavidin-Europium and Enhancement solutions (Perkin Elmer) and the Victor 2 multilabel counter (Perkin Elmer).

gamma-secretase = conditions: cited from earlier work

Sequence of BACE 1 (P56817 46-501): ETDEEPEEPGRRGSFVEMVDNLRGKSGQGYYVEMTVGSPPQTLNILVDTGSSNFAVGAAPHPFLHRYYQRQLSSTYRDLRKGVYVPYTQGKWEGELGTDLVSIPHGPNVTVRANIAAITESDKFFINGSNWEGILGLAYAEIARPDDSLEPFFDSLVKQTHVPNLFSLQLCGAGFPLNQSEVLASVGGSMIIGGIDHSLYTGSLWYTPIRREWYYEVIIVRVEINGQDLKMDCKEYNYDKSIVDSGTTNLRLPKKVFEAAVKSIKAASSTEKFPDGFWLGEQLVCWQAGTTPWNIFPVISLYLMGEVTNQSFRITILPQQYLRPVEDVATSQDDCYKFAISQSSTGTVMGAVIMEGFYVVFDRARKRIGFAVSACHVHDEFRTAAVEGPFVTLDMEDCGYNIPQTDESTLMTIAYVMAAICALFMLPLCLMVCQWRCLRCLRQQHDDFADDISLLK

Compound	IC50 (BACE 1) [nM]	IC50 ([1]; Homo sapiens, HEK293) [nM]	notch selectivity (amyloid-beta precursor protein selective) (gamma-secretase) [×]	IC50 [1] [nM]
NC1=N[C@@]2(c3cc(-c4cccnc4F)ccc3Oc3c(F)cc(C4=CCCOC4)cc32)c2nccn21 [Example 12, (7R)-2′-(5,6-dihydro-2H-pyran-3-yl)-4′-fluoro-7′-(2-fluoro-3-pyridinyl)spiro[imidazo[1,5-a]imidazole-7,9′-xanthen]-5-amine]	23	173	–	–
COc1cc(F)c2c(c1)[C@@]1(N=C(N)N3CCCN=C31)c1cc(-c3cccnc3F)ccc1O2 [Example 10, (7S)-4′-fluoro-7′-(2-fluoropyridin-3-yl)-2′-methoxy-3,4-dihydro-2H-spiro[imidazo[1,5-a]pyrimidine-8,9′-xanthen]-6-amine (7R)-4′-fluoro-7′-(2-fluoropyridin-3-yl)-2′-methoxy-3,4-dihydro-2H-spiro[imidazo[1,5-a]pyrimidine-8,9′-xanthen]-6-amine]	22	78	–	–
Cc1ccc(-c2cc(F)c3c(c2)[C@@]2(N=C(N)n4ccnc42)c2cc(-c4cccnc4F)ccc2O3)cc1 [Example 15, (7S)-4′-fluoro-7′-(2-fluoro-3-pyridinyl)-2′-(4-methylphenyl)spiro[imidazo[1,5-a]imidazole-7,9′-xanthen]-5-amine]	0.4	28	–	–
Cc1ccc(-c2cc(F)c3c(c2)[C@]2(N=C(N)n4ccnc42)c2cc(-c4cccnc4F)ccc2O3)cc1 [Example 14, (7R)-4′-fluoro-7′-(2-fluoro-3-pyridinyl)-2′-(4-methylphenyl)spiro[imidazo[1,5-a]imidazole-7,9′-xanthen]-5-amine]	114	4160	–	–
NC(=O)[C@@H](CCC(F)(F)F)N(Cc1ccc(-c2ncon2)cc1F)S(=O)(=O)c1ccc(Cl)cc1 [BMS-708163]	–	–	193	–
NC1=N[C@]2(c3cc(-c4cccnc4F)ccc3Oc3c(F)cc(N4CCC(F)(F)CC4)cc32)c2nccn21 [Example 17, (7R)-2′-(4,4-difluoro-1-piperidinyl)-4′-fluoro-7′-(2-fluoro-3-pyridinyl)spiro[imidazo[1,5-a]imidazole-7,9′-xanthen]-5-amine, (7S)-2′-(4,4-difluoro-1-piperidinyl)-4′-fluoro-7′-(2-fluoro-3-pyridinyl)spiro[imidazo[1,5-a]imidazole-7,9′-xanthen]-5-amine]	0.7	–	–	51
COc1cc(F)c2c(c1)C1(N=C(N)n3ccnc31)c1cc(-c3cccnc3F)ccc1O2 (stereo not shown) [Example 11, 4′-fluoro-7′-(2-fluoro-3-pyridinyl)-2′-methoxyspiro[imidazo[1,5-a]imidazole-7,9′-xanthen]-5-amine]	9	58	–	–
(7R)-2′-(3,6-dihydro-2H-pyran-4-yl)-4′-fluoro-7′-(2-fluoro-3-pyridinyl)spiro[imidazo[1,5-a]imidazole-7,9′-xanthen]-5-amine, (7S)-2′-(3,6-dihydro-2H-pyran-4-yl)-4′-fluoro-7′-(2-fluoro-3-pyridinyl)spiro[imidazo[1,5-a]imidazole-7,9′-xanthen]-5-amine [Example 16]	0.6	–	–	39
NC1=N[C@]2(c3cc(-c4cccnc4F)ccc3Oc3c(F)cc(C4=CCCOC4)cc32)c2nccn21 [Example 13, (7S)-2′-(5,6-dihydro-2H-pyran-3-yl)-4′-fluoro-7′-(2-fluoro-3-pyridinyl)spiro[imidazo[1,5-a]imidazole-7,9′-xanthen]-5-amine]	0.4	29	–	–

Second part, led by results:

IC50 (BACE 1) [nM]	IC50 ([1]; Homo sapiens, HEK293) [nM]	Compound	notch selectivity (amyloid-beta precursor protein selective) (gamma-secretase) [×]	IC50 [1] [nM]
0.7	31	NC1=N[C@@]2(c3cc(-c4cccnc4F)ccc3Oc3c(F)cc(N4CCOCC4)cc32)c2nccn21 [Example 9B, (7R)-4′-fluoro-7′-(2-fluoro-3-pyridinyl)-2′-(4-morpholinyl)spiro[imidazo[1,5-a]imidazole-7,9′-xanthen]-5-amine]	–	–
189	3970	NC1=N[C@]2(c3cc(-c4cccnc4F)ccc3Oc3c(F)cc(N4CCOCC4)cc32)c2nccn21 [Example 9A, (7S)-4′-fluoro-7′-(2-fluoro-3-pyridinyl)-2′-(4-morpholinyl)spiro[imidazo[1,5-a]imidazole-7,9′-xanthen]-5-amine]	–	–
0.3	86	NC1=N[C@@]2(c3cc(-c4cccnc4F)ccc3Oc3c(F)cc(-c4ccnc(F)c4)cc32)c2nccn21 [Example 8B, (7R)-4′-fluoro-7′-(2-fluoro-3-pyridinyl)-2′-(2-fluoro-4-pyridinyl)spiro[imidazo[1,5-a]imidazole-7,9′-xanthen]-5-amine]	–	–
10	138	NC1=N[C@]2(c3cc(-c4cccnc4F)ccc3Oc3c(F)cc(-c4ccnc(F)c4)cc32)c2nccn21 [Example 8A, (7S)-4′-fluoro-7′-(2-fluoro-3-pyridinyl)-2′-(2-fluoro-4-pyridinyl)spiro[imidazo[1,5-a]imidazole-7,9′-xanthen]-5-amine]	–	–
